Entries after “also recorded” stand apart in the source; their conditions may differ.
Columns and labels:
DM subject [1] = assay: Beck Depression Inventory, self-reported; format: in vivo, human; conditions: additional DM subject; ON treatment: flumazenil 12-18 mg sublingual plus 12 mg topical daily, or armodafinil 250 mg QAM
DM subject [2] = assay: Sleep inertia questionnaire, self-reported; format: in vivo, human; conditions: additional DM subject; ON treatment: flumazenil 12-18 mg sublingual plus 12 mg topical daily, or armodafinil 250 mg QAM
DM subject [3] = assay: Fatigue severity scale, self-reported; format: in vivo, human; conditions: additional DM subject; ON treatment: flumazenil 12-18 mg sublingual plus 12 mg topical daily, or armodafinil 250 mg QAM
DM subject [4] = assay: Epworth Sleepiness Scale, self-reported
DM subject [5] = assay: Hypersomnia Severity Index, self-reported; format: in vivo, human; conditions: additional DM subject; ON treatment: flumazenil 12-18 mg sublingual plus 12 mg topical daily, or armodafinil 250 mg QAM
DM subject [6] = assay: Owl Lark questionnaire, self-reported; format: in vivo, human; conditions: additional DM subject; ON treatment: flumazenil 12-18 mg sublingual plus 12 mg topical daily, or armodafinil 250 mg QAM
DM subject [7] = assay: Functional Outcomes of sleep, self-reported; format: in vivo, human; conditions: additional DM subject; ON treatment: flumazenil 12-18 mg sublingual plus 12 mg topical daily, or armodafinil 250 mg QAM
DM subject [8] = assay: Multidimensional Fatigue Inventory, self-reported; format: in vivo, human; conditions: additional DM subject; ON treatment: flumazenil 12-18 mg sublingual plus 12 mg topical daily, or armodafinil 250 mg QAM
[9] = test system: MBNL2 knockout and DMSXL transgenic mouse models; conditions: MBNL2 knockout and DMSXL transgenic mice; Charizanis et al. 2012; cited from earlier work
[10] = biological target: GABRG2S-containing receptors in HEK293T cells (Homo sapiens, UniProt P14867+P18507); assay: Patch clamp electrophysiology with DM subject CSF in HEK293T cells; conditions: CSF from DM subject 2, with GABA; clarithromycin added
GABRG2S-containing receptors in HEK293T cells, sequence (P18507 40-467 isoform P18507-1 limits assumed): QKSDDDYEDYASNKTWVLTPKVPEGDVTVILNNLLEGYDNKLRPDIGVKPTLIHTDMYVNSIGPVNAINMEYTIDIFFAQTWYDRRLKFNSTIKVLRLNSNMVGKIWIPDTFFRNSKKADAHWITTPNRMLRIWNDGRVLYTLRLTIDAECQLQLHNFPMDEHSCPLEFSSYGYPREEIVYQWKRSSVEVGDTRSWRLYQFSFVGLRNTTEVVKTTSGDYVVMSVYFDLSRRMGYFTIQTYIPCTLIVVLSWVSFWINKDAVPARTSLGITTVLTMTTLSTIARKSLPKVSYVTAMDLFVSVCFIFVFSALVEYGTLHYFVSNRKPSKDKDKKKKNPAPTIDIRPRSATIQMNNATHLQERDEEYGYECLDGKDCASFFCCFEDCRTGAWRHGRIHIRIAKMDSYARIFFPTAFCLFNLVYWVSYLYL
GABRG2S-containing receptors in HEK293T cells, sequence (P14867 28-456): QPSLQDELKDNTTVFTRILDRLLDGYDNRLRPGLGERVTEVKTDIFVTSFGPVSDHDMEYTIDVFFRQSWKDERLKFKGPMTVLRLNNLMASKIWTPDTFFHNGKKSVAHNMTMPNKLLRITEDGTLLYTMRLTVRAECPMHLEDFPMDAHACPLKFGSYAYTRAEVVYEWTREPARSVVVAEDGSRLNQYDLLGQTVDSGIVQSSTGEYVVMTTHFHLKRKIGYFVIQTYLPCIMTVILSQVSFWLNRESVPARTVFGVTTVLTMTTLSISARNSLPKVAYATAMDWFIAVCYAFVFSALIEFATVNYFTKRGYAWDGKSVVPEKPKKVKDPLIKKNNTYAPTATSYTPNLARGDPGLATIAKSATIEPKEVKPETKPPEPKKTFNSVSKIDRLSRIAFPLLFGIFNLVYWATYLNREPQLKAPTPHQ
GABRG2S-containing receptors in HEK293T cells, sequence (P47870 25-512 partner limits assumed): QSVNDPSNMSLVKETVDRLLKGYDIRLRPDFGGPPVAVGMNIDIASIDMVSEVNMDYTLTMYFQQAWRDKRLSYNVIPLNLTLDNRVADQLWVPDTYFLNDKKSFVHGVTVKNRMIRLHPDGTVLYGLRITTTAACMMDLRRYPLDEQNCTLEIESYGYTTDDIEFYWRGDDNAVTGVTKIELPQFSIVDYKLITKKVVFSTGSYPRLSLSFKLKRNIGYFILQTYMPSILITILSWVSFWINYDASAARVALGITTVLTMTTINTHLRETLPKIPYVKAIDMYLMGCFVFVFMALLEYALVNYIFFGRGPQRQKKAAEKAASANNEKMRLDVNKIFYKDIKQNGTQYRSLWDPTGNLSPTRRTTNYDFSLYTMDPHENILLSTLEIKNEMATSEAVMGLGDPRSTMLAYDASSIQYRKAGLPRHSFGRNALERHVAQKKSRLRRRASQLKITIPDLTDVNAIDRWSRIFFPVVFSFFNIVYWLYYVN

DM subject [11] = assay: Clinical treatment of hypersomnia and cognitive deficits in DM subjects; format: in vivo, human
[12] = test system: benzodiazepine binding site of GABAA receptors; conditions: previous work, Rye et al. 2012; cited from earlier work
DM subject 1 [13] = assay: Stanford sleepiness scale; conditions: intravenous flumazenil, 2 different doses incl. 2.0 mg, average of 3 assessments over one hour
DM subject 1 [14] = assay: Ten-minute psychomotor vigilance task
[15] = test system: idiopathic hypersomnia (IH) subjects; conditions: previous work, Rye 2012; Trotti 2016; cited from earlier work
gamma 2L deficient mice = conditions: Quinlan et al. 2000; cited from earlier work
[16] = additional DM subject, ON treatment: flumazenil 12-18 mg sublingual plus 12 mg topical daily, or armodafinil 250 mg QAM

NC(=O)C[S@@+]([O-])C(c1ccccc1)c1ccccc1 [Armodafmil, armodafinil]
Beck Depression Inventory (0-39) (DM subject [1]): 3 | Sleep inertia questionnaire (DM subject [2]): 14.683 | Fatigue severity scale (7-63) (DM subject [3]): 47 | Epworth Sleepiness Scale (DM subject [4]; [16]): 8 | Hypersomnia Severity Index (0-36) (DM subject [5]): 25 | Owl Lark (DM subject [6]): 36 | Functional Outcomes of sleep (5-20) (DM subject [7]): 16.875 | General Fatigue (5-20) (DM subject [8]): 15 | Mental Fatigue (5-20) (DM subject [8]): 11 | Physical Fatigue (5-20) (DM subject [8]): 6 | Reduced Activity (5-20) (DM subject [8]): 7 | Reduced Motivation (5-20) (DM subject [8]): 5

C1CCc2nnnn2CC1 [Pentylenetetrazole]
spontaneous seizure and death in response to PTZ [9]: increased frequency of spontaneous seizure and death

CC[C@H]1OC(=O)[C@H](C)[C@@H](O[C@H]2C[C@@](C)(OC)[C@@H](O)[C@H](C)O2)[C@H](C)[C@@H](O[C@@H]2O[C@H](C)C[C@H](N(C)C)[C@H]2O)[C@](C)(OC)C[C@@H](C)C(=O)[C@H](C)[C@@H](O)[C@]1(C)O [clarithromycin]
effect on endozepine-like activity of CSF [10]: reversed; also recorded: normalized | Oral clarithromycin treatment outcome (DM subject [11]; DM subject 1): discontinued use - | Oral clarithromycin treatment outcome (DM subject [11]; DM subject 2): clinical benefit; also recorded: efficacious

CCOC(=O)c1ncn2c1CN(C)C(=O)c1cc(F)ccc1-2 [flumazenil]
endozepine-like molecule binding [12]: inhibits endozepine-like molecule binding | self reported sleepiness on the Stanford sleepiness scale (DM subject 1 [13]): reduced sleepiness | Epworth Sleepiness Scale (DM subject [4]; DM subject 4, ON flumazenil 12-18 mg sublingual plus 12 mg topical daily, 6 continuous weeks): 5 | Epworth Sleepiness Scale (DM subject [4]; [16]): 7 | time elapsed between visual stimulus and user input (DM subject 1 [14]; 2.0 mg intravenously administered flumazenil, versus before treatment): dramatic decrease in time elapsed | lapses in attention (reaction times >500 ms) (DM subject 1 [14]; intravenous flumazenil, 2 different doses incl. 2.0 mg): marked reduction in lapses in attention; also recorded: decreased | clinical benefit in idiopathic hypersomnia [15]: clinical benefit | action of midazolam in gamma 2L deficient mice (gamma 2L deficient mice): reversed
